This is an account of results in patent US20100061982A1, “3-SUBSTITUTED-1H-INDOLE, 3-SUBSTITUTED-1H-PYRROLO[2,3-B]PYRIDINE AND 3-SUBSTITUTED-1H-PYRROLO[3,2-B]PYRIDINE COMPOUNDS, THEIR USE AS MTOR KINASE AND PI3 KINASE INHIBITORS, AND THEIR SYNTHESES” (priority 2008, published 2010).

A short description of data set [1]: Microsome Stability (15 min), nude mouse. It counts as in vitro ADME. The settings on record: microsomes, Phase I (NADPH), read-out: Microsome Stability (15 min) T ½ Phase I nude mouse.
The nature of data set [2]: Microsome Stability (15 min), human. The class given is in vitro ADME. The settings on record: microsomes, Phase I (NADPH), read-out: Microsome Stability (15 min) T ½ Phase I human.
Data set [3] is described as follows: Plasma Stability (37° C.), rat.
The nature of data set [4]: PAMPA permeability pH 7.4. (In PAMPA a lipid-coated filter parts donor from acceptor wells.)
Data set [5] can be described thus: Buffer Stability (37° C.).
The next data set deals with PI3K alpha (Homo sapiens, UniProt P42336). As to the kind of experiment: PI3K-alpha Fluorescence Polarization Assay. The class given is biochemical. A general note: Fluorescence polarisation rises when a labelled molecule tumbles more slowly, as on binding a larger partner.
Data set [6] in a line: Microsome Stability (15 min), rat. The class given is in vitro ADME. The conditions noted are these: microsomes, Phase I (NADPH), read-out: Microsome Stability (15 min) T ½ Phase I rat.
Data set [7] is described as follows: In vivo blood/plasma and tumor levels of prodrug and metabolites after 50 mg, kg po. The settings on record: 50 mg.

SMILES strings stand for the structures. Read-outs that look alike come from different tables or passages of the source.

Chain of PI3K alpha (P42336 whole entry, species assumed): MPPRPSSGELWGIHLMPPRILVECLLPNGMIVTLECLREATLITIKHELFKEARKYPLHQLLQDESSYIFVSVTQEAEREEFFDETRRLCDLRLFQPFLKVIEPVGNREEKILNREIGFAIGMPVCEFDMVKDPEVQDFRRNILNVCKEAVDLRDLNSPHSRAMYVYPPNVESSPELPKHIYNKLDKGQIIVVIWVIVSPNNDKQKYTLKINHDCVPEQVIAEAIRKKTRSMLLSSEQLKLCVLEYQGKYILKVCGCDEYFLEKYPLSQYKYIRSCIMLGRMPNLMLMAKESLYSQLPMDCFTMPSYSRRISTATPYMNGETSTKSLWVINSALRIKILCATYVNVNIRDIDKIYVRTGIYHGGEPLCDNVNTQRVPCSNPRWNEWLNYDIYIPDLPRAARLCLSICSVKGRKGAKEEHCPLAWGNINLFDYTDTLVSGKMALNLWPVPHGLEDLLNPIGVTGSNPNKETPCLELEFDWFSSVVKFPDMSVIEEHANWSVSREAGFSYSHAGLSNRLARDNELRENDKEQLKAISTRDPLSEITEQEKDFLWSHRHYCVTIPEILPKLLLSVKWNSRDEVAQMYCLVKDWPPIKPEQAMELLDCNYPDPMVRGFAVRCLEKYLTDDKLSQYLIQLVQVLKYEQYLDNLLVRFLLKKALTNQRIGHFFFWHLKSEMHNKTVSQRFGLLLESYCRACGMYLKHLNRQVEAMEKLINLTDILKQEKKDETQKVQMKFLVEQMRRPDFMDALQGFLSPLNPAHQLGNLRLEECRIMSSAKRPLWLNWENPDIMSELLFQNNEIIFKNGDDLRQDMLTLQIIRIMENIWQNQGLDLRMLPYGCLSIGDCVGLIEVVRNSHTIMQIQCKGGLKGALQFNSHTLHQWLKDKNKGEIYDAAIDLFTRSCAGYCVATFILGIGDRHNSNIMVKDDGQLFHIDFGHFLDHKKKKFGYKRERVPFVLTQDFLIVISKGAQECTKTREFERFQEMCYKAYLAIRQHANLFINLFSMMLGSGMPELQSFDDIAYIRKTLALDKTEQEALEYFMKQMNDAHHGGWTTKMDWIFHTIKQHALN
Chain of PI3K alpha (P27986 whole entry partner, species assumed): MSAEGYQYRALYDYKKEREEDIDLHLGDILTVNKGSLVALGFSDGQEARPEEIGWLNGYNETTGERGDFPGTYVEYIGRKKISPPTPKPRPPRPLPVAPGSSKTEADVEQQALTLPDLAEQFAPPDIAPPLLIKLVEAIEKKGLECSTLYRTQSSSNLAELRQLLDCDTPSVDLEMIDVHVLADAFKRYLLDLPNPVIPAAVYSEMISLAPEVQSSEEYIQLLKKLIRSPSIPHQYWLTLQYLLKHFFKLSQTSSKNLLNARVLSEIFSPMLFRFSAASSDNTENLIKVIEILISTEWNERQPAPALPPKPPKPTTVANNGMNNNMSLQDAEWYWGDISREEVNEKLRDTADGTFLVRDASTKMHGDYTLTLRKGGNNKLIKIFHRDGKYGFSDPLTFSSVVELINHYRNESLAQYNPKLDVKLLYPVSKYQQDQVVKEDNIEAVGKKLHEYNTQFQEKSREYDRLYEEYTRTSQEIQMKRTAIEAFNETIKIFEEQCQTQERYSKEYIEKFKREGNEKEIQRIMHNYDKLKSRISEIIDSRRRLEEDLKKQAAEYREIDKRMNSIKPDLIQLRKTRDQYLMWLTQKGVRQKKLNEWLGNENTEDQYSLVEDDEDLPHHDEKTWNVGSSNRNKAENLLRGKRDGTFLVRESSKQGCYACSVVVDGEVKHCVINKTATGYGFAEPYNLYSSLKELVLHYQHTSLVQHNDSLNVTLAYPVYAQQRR

A word on the IC50: it is the point on the concentration scale where inhibition reaches its midpoint. `COC(=O)Oc1cc(OC(=O)OC)c2c(c1)O/C(=C\c1c(-c3ccccc3)[nH]c3ccc(OC)cc13)C2=O` [Example 22, (2Z)-2-[(5-methoxy-2-phenyl-1H-indol-3-yl)methylene]-3-oxo-2,3-dihydro-1-benzofuran-4,6-diyl dimethyl biscarbonate]: in data set [1] (nude, mouse), the half-life amounted to 4 min. Moreover, the half-life in data set [2] came to 3 min. The “Plasma Stability (37° C.) % Remaining (3-3.5 hours) rat” value (from here on “Plasma Stability (37° C.) % Remaining”) in data set [3] came out at 0%. The “PAMPA Pe” value in data set [4] is given as 0 10e−6 cm/s. For the same molecule, in data set [5], the “Buffer Stability (37° C.) % Remaining (at 16-23 hours) SGF” value is 87%, the “Buffer Stability (37° C.) % Remaining (at 16-23 hours) SIF” value came out at 0%, the “Buffer Stability (37° C.) % Remaining (at 16-23 hours) pH 1” value stood at 80% and the “Buffer Stability (37° C.) % Remaining (at 16-23 hours) pH 4.5” value was 37%. Further, in data set [5], the “Buffer Stability (37° C.) % Remaining (at 16-23 hours) pH 6.6” value amounted to 42%, the “Buffer Stability (37° C.) % Remaining (at 16-23 hours) pH 7.4” value is on record as 0% and the “Buffer Stability (37° C.) % Remaining (at 16-23 hours) pH 9” value stood at 0%. For the same molecule, the IC50 at PI3K alpha (read-out: PI3K alpha Mean IC50) stood at 0.013 µM.
With `COc1ccc2[nH]c(-c3ccccc3)c(/C=C3\Oc4cc(OC(=O)N(c5ccccc5)c5ccccc5)ccc4C3=O)c2c1` [Example 20, (2Z)-2-[(5-methoxy-2-phenyl-1H-indol-3-yl)methylene]-3-oxo-2,3-dihydro-1-benzofuran-6-yl diphenylcarbamate], in data set [6], the half-life was more than 30 min. The half-life in data set [1] is more than 30 min. Further, the half-life in data set [2] was more than 30 min. In addition, the “Plasma Stability (37° C.) % Remaining” value in data set [3] is recorded as 91%. For the same molecule, the “PAMPA Pe” value in data set [4] was “Undetected”. Besides, in data set [5], the “Buffer Stability (37° C.) % Remaining (at 16-23 hours) SGF” value turned out to be 100%, the “Buffer Stability (37° C.) % Remaining (at 16-23 hours) SIF” value amounted to 100%, the “Buffer Stability (37° C.) % Remaining (at 16-23 hours) pH 1” value turned out to be 100% and the “Buffer Stability (37° C.) % Remaining (at 16-23 hours) pH 4.5” value is on record as 100%. In data set [5], the “Buffer Stability (37° C.) % Remaining (at 16-23 hours) pH 6.6” value was 100%, the “Buffer Stability (37° C.) % Remaining (at 16-23 hours) pH 7.4” value amounted to 100% and the “Buffer Stability (37° C.) % Remaining (at 16-23 hours) pH 9” value is 95%. For the same molecule, the IC50 at PI3K alpha (read-out: PI3K alpha Mean IC50) was more than 10 µM.
Consider `COc1ccc2c(c1)c(/C=C1\Oc3cc(OC(=O)c4ccccc4)cc(OC(=O)c4ccccc4)c3C1=O)cn2CCCN(C)C` [Example 24, (2Z)-2-({1-[3-(dimethylamino)propyl]-5-methoxy-1H-indol-3-yl}methylene)-3-oxo-2,3-dihydro-1-benzofuran-4,6-diyl dibenzoate], for which the half-life in data set [6] turned out to be 12 min. In data set [2], the half-life was 22 min. For the same molecule, the “Plasma Stability (37° C.) % Remaining” value in data set [3] was determined as 6%. The “PAMPA Pe” value in data set [4] is reported as 0 10e−6 cm/s. In addition, in data set [5], the “Buffer Stability (37° C.) % Remaining (at 16-23 hours) SGF” value was found to be 104%, the “Buffer Stability (37° C.) % Remaining (at 16-23 hours) SIF” value was determined as 0%, the “Buffer Stability (37° C.) % Remaining (at 16-23 hours) pH 1” value stood at 86% and the “Buffer Stability (37° C.) % Remaining (at 16-23 hours) pH 4.5” value is recorded as 71%. In data set [5], the “Buffer Stability (37° C.) % Remaining (at 16-23 hours) pH 6.6” value stood at 50%, the “Buffer Stability (37° C.) % Remaining (at 16-23 hours) pH 7.4” value is listed as 5% and the “Buffer Stability (37° C.) % Remaining (at 16-23 hours) pH 9” value is 0%. For the same molecule, the IC50 at PI3K alpha (read-out: PI3K alpha Mean IC50) is more than 10 µM.
Take `COc1ccc2c(c1)c(/C=C1\Oc3cc(OC(=O)N(C(C)C)C(C)C)cc(OC(=O)N(C(C)C)C(C)C)c3C1=O)c(C)n2CCN1CCN(C)CC1` [Example 28, (2Z)-2-({5-methoxy-2-methyl-1-[2-(4-methylpiperazin-1-yl)ethyl]-1H-indol-3-yl}methylene)-3-oxo-2,3-dihydro-1-benzofuran-4,6-diyl bis(diisopropylcarbamate)]: the plasma prodrug concentration in data set [7] (0.5 h) is reported as 1141, ng, ml; in data set [7] (2 h), 940, ng, ml; in data set [7] (6 h (third value)), 1106 ng, ml. Further, the half-life in data set [1] was 24 min; in data set [2], 8 min. Besides, the “PAMPA Pe” value in data set [4] was 0.05 10e−6 cm/s. For the same molecule, the IC50 against PI3K alpha is 9.5 µM.
In the case of `COc1ccc2c(c1)c(/C=C1\Oc3cc(OC(=O)c4ccccc4)cc(OC(=O)c4ccccc4)c3C1=O)c(C)n2CCN1CCN(C)CC1` [Example 16, (2Z)-2-({5-methoxy-2-methyl-1-[2-(4-methylpiperazin-1-yl)ethyl]-1H-indol-3-yl}methylene)-3-oxo-2,3-dihydro-1-benzofuran-4,6-diyl dibenzoate], in data set [6], the half-life was 10 min. Further, the half-life in data set [2] is more than 30 min. Moreover, the “PAMPA Pe” value in data set [4] is listed as 0 10e−6 cm/s. Moreover, in data set [5], the “Buffer Stability (37° C.) % Remaining (at 16-23 hours) SGF” value is 99%, the “Buffer Stability (37° C.) % Remaining (at 16-23 hours) SIF” value was 64%, the “Buffer Stability (37° C.) % Remaining (at 16-23 hours) pH 1” value is on record as 96% and the “Buffer Stability (37° C.) % Remaining (at 16-23 hours) pH 4.5” value worked out at 73%. Further, in data set [5], the “Buffer Stability (37° C.) % Remaining (at 16-23 hours) pH 6.6” value turned out to be 75%, the “Buffer Stability (37° C.) % Remaining (at 16-23 hours) pH 7.4” value was 4% and the “Buffer Stability (37° C.) % Remaining (at 16-23 hours) pH 9” value amounted to 0%. Besides, the IC50 on PI3K alpha (read-out: PI3K alpha Mean IC50) stood at 8.53 µM.
As to `COc1ccc2[nH]c(-c3ccccc3)c(/C=C3\Oc4cc(OC(=O)N(C)C)ccc4C3=O)c2c1` [Example 18, (2Z)-2-[(5-methoxy-2-phenyl-1H-indol-3-yl)methylene]-3-oxo-2,3-dihydro-1-benzofuran-6-yl dimethylcarbamate], the half-life in data set [6] amounted to 28 min. Moreover, the half-life in data set [1] was more than 30 min. Also, the half-life in data set [2] came out at 13 min. The “Plasma Stability (37° C.) % Remaining” value in data set [3] stood at 0%. Also, the “PAMPA Pe” value in data set [4] was “Undetected”. In data set [5], the “Buffer Stability (37° C.) % Remaining (at 16-23 hours) SGF” value is on record as 100%, the “Buffer Stability (37° C.) % Remaining (at 16-23 hours) SIF” value came out at 101%, the “Buffer Stability (37° C.) % Remaining (at 16-23 hours) pH 1” value is 99% and the “Buffer Stability (37° C.) % Remaining (at 16-23 hours) pH 4.5” value is reported as 100%. Besides, in data set [5], the “Buffer Stability (37° C.) % Remaining (at 16-23 hours) pH 6.6” value stood at 100%, the “Buffer Stability (37° C.) % Remaining (at 16-23 hours) pH 7.4” value is given as 100% and the “Buffer Stability (37° C.) % Remaining (at 16-23 hours) pH 9” value stood at 99%. At PI3K alpha, this molecule gave an IC50 of 6.35 µM.
As to `COc1ccc2c(c1)c(/C=C1\Oc3cc(OC(=O)N(c4ccccc4)c4ccccc4)cc(OC(=O)N(c4ccccc4)c4ccccc4)c3C1=O)cn2CCCN(C)C` [Example 21, (2Z)-2-({1-[3-(dimethylamino)propyl]-5-methoxy-1H-indol-3-yl}methylene)-3-oxo-2,3-dihydro-1-benzofuran-4,6-diyl bis(diphenylcarbamate)], in data set [1], the half-life was more than 30 min. The “Plasma Stability (37° C.) % Remaining” value in data set [3] stood at 107%. In data set [4], the “PAMPA Pe” value was 0 10e−6 cm/s. Also, in data set [5], the “Buffer Stability (37° C.) % Remaining (at 16-23 hours) SGF” value was found to be 99%, the “Buffer Stability (37° C.) % Remaining (at 16-23 hours) SIF” value is reported as 45%, the “Buffer Stability (37° C.) % Remaining (at 16-23 hours) pH 1” value was determined as 118% and the “Buffer Stability (37° C.) % Remaining (at 16-23 hours) pH 4.5” value stood at 103%. In addition, in data set [5], the “Buffer Stability (37° C.) % Remaining (at 16-23 hours) pH 6.6” value came out at 91%, the “Buffer Stability (37° C.) % Remaining (at 16-23 hours) pH 7.4” value worked out at 98% and the “Buffer Stability (37° C.) % Remaining (at 16-23 hours) pH 9” value is listed as 87%. Also, at PI3K alpha, the IC50 was more than 10 µM.
In the case of `Cn1cc(/C=C2\Oc3cc(O)cc(O)c3C2=O)c2c(-c3ccccc3)cccc21` [(2Z)-4,6-dihydroxy-2-[(1-methyl-4-phenyl-1H-indol-3-yl)methylene]-1-benzofuran-3(2H)-one], the half-life in data set [6] was found to be 21 min. In data set [4], the “PAMPA Pe” value is given as 0.04 10e−6 cm/s.
As for `COc1ccc2[nH]c(-c3ccccc3)c(/C=C3\Oc4cc(OC(=O)c5ccccc5)cc(OC(=O)c5ccccc5)c4C3=O)c2c1` [Example 6, (2Z)-2-[(5-methoxy-2-phenyl-1H-indol-3-yl)methylene]-3-oxo-2,3-dihydro-1-benzofuran-4,6-diyl dibenzoate], the “PAMPA Pe” value in data set [4] is reported as 0.12 10e−6 cm/s. Also, the IC50 at PI3K alpha (read-out: PI3K alpha Mean IC50) is 0.472 µM.
For the molecule `CCOP(=O)(OCC)Oc1cc2c(c(OP(=O)(OCC)OCC)c1)C(=O)/C(=C/c1c(-c3ccccc3)[nH]c3ccc(OC)cc13)O2` [Example 32, tetraethyl (2Z)-2-[(5-methoxy-2-phenyl-1H-indol-3-yl)methylene]-3-oxo-2,3-dihydro-1-benzofuran-4,6-diyl bis(phosphate)], the half-life came to 7 min in data set [6] and 2 min in data set [2]. For the same molecule, the “PAMPA Pe” value in data set [4] is listed as 0 10e−6 cm/s. The same molecule had an IC50 against PI3K alpha of 11 µM.
With `CCOP(=O)(OCC)Oc1ccc2c(c1)O/C(=C\c1c(-c3ccccc3)[nH]c3ccc(OC)cc13)C2=O` [Example 34, diethyl (2Z)-2-[(5-methoxy-2-phenyl-1H-indol-3-yl)methylene]-3-oxo-2,3-dihydro-1-benzofuran-6-yl phosphate], the plasma prodrug concentration in data set [7] (0.5 h) was 6 ng, ml; in data set [7] (2 h), 2 ng, ml; in data set [7] (6 h (third value)) it was “bql”. In addition, the half-life in data set [6] is 17 min; in data set [1] it was more than 30 min; in data set [2], 26 min. The “PAMPA Pe” value in data set [4] was 0 10e−6 cm/s. This molecule showed an IC50 at PI3K alpha of 5.67 µM.
